According to patent US9868695B2 (priority 2014, dated 2018):
Several values for one entry are separate records, joined by “and”; a condition that tells them apart may be missing. Equal values may be shown once. Read-outs that look alike come from different tables or passages of the source.

Tests used:
[1] = test system: microtubules in HCT-116 cells; assay: Effect of compounds on microtubules, confocal microscopy; assay type: cell-based, Human; details: 100 nM, 24 h, anti-α-tubulin staining, compared to control
Method: For detection of tubulins, HCT-116 cells (1×10^5 cells/well) were seeded on to 18 mm square cover slips in six well plates in complete medium. […] After the treatment period, cells were fixed in 4% paraformaldehyde for 10 min at room temperature and permeabilized using 0.5% Triton-X in PBS for 5 min. The cells were blocked with 10% goat serum for 20 min at room temperature. Microtubules were detected with a monoclonal α-tubulin antibody (Sigma, Catalogue number: T9026) diluted 1:100 in 0.1% Triton X-100 in PBS for 1 h at room temperature and Alexa Fluor 488 conjugated secondary antibody (Invitrogen) diluted 1:500 in PBS for 1 h at room temperature. Cells were then washed three times in PBS and stained with 4′,6-diamidino-2-phenylindole (DAPI 1 μg/ml in PBS). The cover slips were mounted over glass slides and cells were imaged by a laser scanning confocal microscope (Olympus Fluoview FV1000). The promising candidates identified through P-gp screening and antiproliferative screening were further studied for tubulin polymerization inhibition activity.

Ehrlich solid tumor = assay: In vivo activity in Ehrlich solid tumor model; parameters: species or system swiss mice; details: i/p day 1-9, 1 0.75 mg/kg, 1g 1 mg/kg, 5-fluorouracil 22 mg/kg; for Mortality: dead/group size
Method: Ehrlich ascites carcinoma (EAC) cells were collected from the peritoneal cavity of the swiss mice (animal house of IIIM registered eith CPCSEA; registration no. 67/99/CPCSEA) weighing 18-23 gm, harbouring 8-10 days old ascitic tumor. 1×10^7 EAC cells were injected intramuscularly in the right thigh of 38 swiss male mice selected for the experiment on day 0. The next day, animals were randomized and divided into five groups. Four treatment groups contained 7 animals each and one control group contained 10 animals. Treatment was given as follows:
Group I: 1 (0.75 mg/kg, i/p) from day 1-9.
Group II: 1g (1 mg/kg, i/p) from day 1-9.
The third treatment group was treated with 5-fluorouracil (22 mg/kg, i/p) from day 1-9 and it served as positive control. The control group was similarly administered normal saline (0.2 ml, i/p) from day 1-9. On day 9 & 13, tumor bearing thigh of each animal was shaved and longest and shortest diameters of the tumor were measured with the help of vernier caliper. Tumor weight of each animal was calculated using the following formula.
The percent tumor growth inhibition was calculated on day 13 by comparing the average values of treated groups with that of control group. Tumor growth in saline treated control animals was taken to be 100%.

[2] = Oral and IV pharmacokinetic studies; assay type: in vivo; details: BALB/c mice; for bioavailability: PO 10 mg/Kg vs IV 1 mg/Kg
Method: Oral and intravenous (IV) pharmacokinetic studies of compound 1g were carried out in BALB/c male mice (Jubilant Biosys Limited, Bangalore) of age 4-6 weeks, by administering 1g orally and IV at dose of 10 mg/kg for oral and 1 mg/kg for IV. Plasma samples were collected at appropriate time points between the range of 0 hours to 24 hours and analyzed by LC-MS-MS. Mean plasma concentration calculated and data were further analyzed for PK parameters using WinNonlin 5.3 software package.

[3] = Thermodynamic equilibrium solubility; assay type: physicochemical; details: 25 °C, thermodynamic from solid, 25±1° C.
Method: The compounds were first dissolved in methanol to prepare stock solutions (100 and 1000 μg/mL). Different concentrations of stock solutions were pipetted into the 96-well plates and the solvent was evaporated to ensure that solid drug was present in the beginning of the experiment. Thereafter, 200 μl of the dissolution medium was added to the wells and 96-well plate was shaken horizontally at 300 rpm (Eppendorf Thermoblock Adapter, North America) for 4 h at room temperature (25±1° C.). The plates were kept overnight for equilibration of drug in medium. Later, the plates were centrifuged at 3000 rpm for 15 min (Jouan centrifuge BR4i). Supernatant (50 μl) was pipetted into UV 96-well plates (Corning® 96 Well Clear Flat Bottom UV-Transparent Microplate) for analyses with plate reader (SpectraMax Plus384) at λmax of 350 nm. The analyses were performed in triplicate for each compound. The solubility curve of concentration (μg/mL) vs absorbance was plotted to find out saturation point and the corresponding concentration was noted.

HCT-116 = assay: Antiproliferative activity, MTT assay, HCT-116; assay type: cell-based, Human; details: 48 h
Method: Human colon cancer cell lines HCT-116 (NCI, passage no. 5) and Colo-205 116 (NCI, passage no. 3) were procured from National Cancer Institute, USA. HCT-116 and Colo-205 cells were grown in McCoy's 5A and RPMI growth medium respectively containing 10% FCS, 100 U penicillin and […] per mL medium. Cells were grown in CO2 incubator (Thermocon Electron Corporation, Houston, Tex.) at 37° C. with 95% humidity and 5% CO2 gas environment. Cells treated with tested materials were dissolved in DMSO while the untreated control cultures received only the vehicle (DMSO<0.2%). Cells were seeded in 96 well plates and exposed to tested compounds at various concentrations for 48 h time interval. MTT dye (2.5 mg/ml in PBS) was added 4 hrs priors to experiment termination. The plates were then centrifuged at 1500 rpm for 15 min and the supernatant was discarded, and MTT formazan crystals were dissolved in 150 μl of DMSO. The OD measured at 570 nm with reference wavelength of 620 nm.
The percentages of cell viability and growth inhibition were calculated using formulas: […]

[4] = male, mouse, plasma, IV 1 mg/Kg
[5] = male, mouse, plasma, PO 10 mg/Kg

Compound: COc1cc2c(c(OC)c1OC)-c1ccc(Nc3ccc(Cl)c(C(F)(F)F)c3)c(=O)cc1[C@@H](NC(C)=O)CC2 [Compound 1g, N-[(7S)-1,2,3-Trimethoxy-9-oxo-10-[3-(trifluoromethyl)-4-chloro-phenylamino]-5,6,7,9-tetrahydrobenzo[a]heptalen-7-yl]acetamide]
- disruption of microtubule assembly [1]: remarkable disruption and loss of microtubules
- Avg. body weights (g) of animal on days 1 (Ehrlich solid tumor; day 1): 22.28 g
- Avg. body weights (g) of animal on days 5 (Ehrlich solid tumor; day 5): 22.0 g
- Avg. body weights (g) of animal on days 9 (Ehrlich solid tumor; day 9): 21.28 g
- Day 13 Avg. body weights (Ehrlich solid tumor; day 13): 21.66 g
- Day 13 Avg. tumor weights (Ehrlich solid tumor; day 13): 778.0 mg
- % Tumor Growth Inhibition (Ehrlich solid tumor; day 13 vs saline control): 47.35%
- Mortality (Ehrlich solid tumor): no mortality and 0/7
- Mortality (Ehrlich solid tumor; listed as 4o): no mortality
- Tlast ([2]; IV 1 mg/Kg): 8.00 h
- CL ([2]; IV 1 mg/Kg, 1 mg/kg): 6.19 mL/min/kg
- bioavailability [2]: 64.4 % F
- clearance ([2]; male, BALB/c, mouse, plasma, iv, 1 mg/kg, IV 1 mg/Kg): ~6 mL/min/kg
- Vd ([2]; male, BALB/c, mouse, plasma, iv, 1 mg/kg, IV 1 mg/Kg, read-out: Vd): 1.49 L/kg
- Vd ([2]; male, BALB/c, mouse, plasma, iv, 1 mg/kg, IV 1 mg/Kg, read-out: Vdss): 1.47 L/kg
- AUC(0-inf) [2, 4]: 2690 ng·h/mL
- AUC(0-t) [2, 4]: 2340 ng·h/mL
- Cmax [2, 4]: 698 ng/mL
- C0 ([2]; male, mouse, plasma, IV 1 mg/Kg, extrapolated, calculated manually using initial 3 time points): 819 ng/mL
- half-life ([2]; male, mouse, plasma, IV 1 mg/Kg, read-out: t1/2, β (converted)): 2.78 h
- bioavailability ([2]; male, mouse, plasma, read-out: absolute oral bioavailability): 64%
- AUC(0-inf) [2, 5]: 17300 ng·h/mL
- AUC(0-t) [2, 5]: 16900 ng·h/mL
- Cmax [2, 5]: 3030 ng/mL
- Tmax [2, 5]: 2 h
- half-life ([2]; male, mouse, plasma, PO 10 mg/Kg, read-out: t1/2,β (converted)): 5.43 h
- solubility ([3]; aqueous buffer, phosphate buffer saline, read-out: Solubility, PBS): > 1500 µg/mL
- solubility ([3]; fassgf or other biorelevant, simulated intestinal fluid, read-out: Solubility, SIF): > 1500 µg/mL
- solubility ([3]; simulated gastric fluid, read-out: Solubility, SGF): > 1500 µg/mL
- solubility ([3]; water, read-out: Solubility, Water): > 1500 µg/mL
- IC50 (HCT-116): 40 nM
